# Experimental data from patent publication US8916711B2, “Imidazothiazole-chalcone derivatives as potential anticancer agents and process for the preparation thereof” (Council of Scientific and Industrial Research, priority 2009, dated 2014).
# Like-named read-outs stand apart in the source and are kept apart here.
# Legend:
# Assay type in all cases: cell-based
# HT29 = experiment: NCI in vitro cytotoxicity (SRB, 48 h), Colon panel; settings: Homo sapiens, HT-29, 48 h exposure
# KM12 = experiment: NCI in vitro cytotoxicity (SRB, 48 h), Colon panel; settings: Homo sapiens, 48 h exposure
# CCRF-CEM = experiment: NCI in vitro cytotoxicity (SRB, 48 h), Leukemia panel; settings: Homo sapiens, 48 h exposure
# SK-MEL-28 = experiment: NCI in vitro cytotoxicity (SRB, 48 h), Melanoma panel; settings: Homo sapiens; SK-MEL-28, Melanoma; 48 h exposure
# TK-10 = experiment: NCI in vitro cytotoxicity (SRB, 48 h), Renal panel; settings: Homo sapiens; TK-10, Renal; 48 h exposure
# PC-3 = experiment: NCI in vitro cytotoxicity (SRB, 48 h), Prostate panel; settings: Homo sapiens; PC-3, Prostate; 48 h exposure
# LOX IMVI = experiment: NCI in vitro cytotoxicity (SRB, 48 h), Melanoma panel; settings: Homo sapiens, 48 h exposure
# SK-OV-3 = experiment: NCI in vitro cytotoxicity (SRB, 48 h), Ovarian panel; settings: Homo sapiens; SK-OV-3, Ovarian; 48 h exposure
# UO-31 = experiment: NCI in vitro cytotoxicity (SRB, 48 h), Renal panel; settings: Homo sapiens; UO-31, Renal; 48 h exposure
# [1] = test system: Ovarian cancer cell lines; experiment: NCI in vitro cytotoxicity, whole panel; settings: Homo sapiens; for CC50: read-out: Log10 LC50 (converted)
# Melanoma cell lines = experiment: NCI in vitro cytotoxicity, whole panel; settings: Homo sapiens; for CC50: read-out: Log10 LC50 (converted)
# NCI-H522 = experiment: NCI in vitro cytotoxicity (SRB, 48 h), Non-small cell lung panel; settings: Homo sapiens, 48 h exposure
# OVCAR-8 = experiment: NCI in vitro cytotoxicity (SRB, 48 h), Ovarian panel; settings: Homo sapiens
# SK-MEL-5 = experiment: NCI in vitro cytotoxicity (SRB, 48 h), Melanoma panel; settings: Homo sapiens; SK-MEL-5, Melanoma; 48 h exposure
# Leukemia cell lines = experiment: NCI in vitro cytotoxicity, whole panel; settings: Homo sapiens; for CC50: read-out: Log10 LC50 (converted)
# [2] = test system: sixty human tumour cell lines; experiment: NCI in vitro cytotoxicity, all panels; settings: for CC50: read-out: Log10 LC50 mean graph midpoint (MG_MID) (converted)
# UACC-25 = experiment: NCI in vitro cytotoxicity (SRB, 48 h), Melanoma panel; settings: Homo sapiens; UACC-25, Melanoma; 48 h exposure
# U251 = experiment: NCI in vitro cytotoxicity (SRB, 48 h), CNS panel; settings: Homo sapiens, U-251, 48 h exposure
# Renal cancer cell lines = experiment: NCI in vitro cytotoxicity, whole panel; settings: Homo sapiens; for CC50: read-out: Log10 LC50 (converted)
# HOP-92 = experiment: NCI in vitro cytotoxicity (SRB, 48 h), Non-small cell lung panel; settings: Homo sapiens
# SR = experiment: NCI in vitro cytotoxicity (SRB, 48 h), Leukemia panel; settings: Homo sapiens
# Description: (§1) The imidazothiazole-chalcone hybrids 7a, 7e, 7f, 8f and 19e have been tested against sixty human tumour cell lines derived from nine cancer types (leukemia, non-small cell lung cancer, colon cancer, CNS cancer, melanoma, ovarian cancer, renal cancer, prostate cancer and breast cancer) as per NCI protocol. For each compound, dose response curves for individual cell lines have been measured at a minimum of five concentrations at 10 fold dilutions. A protocol of 48 h continuous drug exposure has been used, and a sulforhodamine B (SRB) protein assay was used to estimate cell viability or growth. The concentration for 50% cell growth inhibition (GI50), total cell growth inhibition (TGI, 0% growth) and 50% cell death (LC50, […]) compared with the control has been calculated (Table-1).
# HL-60(TB) = experiment: as above; settings: Homo sapiens, 48 h exposure
# Description: as §1
# 786-0 = experiment: NCI in vitro cytotoxicity (SRB, 48 h), Renal panel; settings: Homo sapiens; 786-0, Renal; 48 h exposure
# OVCAR-3 = experiment: NCI in vitro cytotoxicity (SRB, 48 h), Ovarian panel; settings: Homo sapiens; OVCAR-3, Ovarian; 48 h exposure
# OVCAR-4 = experiment: as above; settings: Homo sapiens; OVCAR-4, Ovarian; 48 h exposure
# DU-145 = experiment: NCI in vitro cytotoxicity (SRB, 48 h), Prostate panel; settings: Homo sapiens; DU-145, Prostate; 48 h exposure
# [3] = test system: Prostate cancer cell lines; experiment: NCI in vitro cytotoxicity, whole panel; settings: Homo sapiens; for LC50: read-out: Log10 LC50 (converted)
# HOP-62 = experiment: NCI in vitro cytotoxicity (SRB, 48 h), Non-small cell lung panel; settings: Homo sapiens; HOP-62, Non-small cell lung; 48 h exposure
# MALME-3M = experiment: NCI in vitro cytotoxicity (SRB, 48 h), Melanoma panel; settings: Homo sapiens, 48 h exposure
# HCT-15 = experiment: NCI in vitro cytotoxicity (SRB, 48 h), Colon panel; settings: Homo sapiens; HCT-15, Colon; 48 h exposure
# EKVX = experiment: NCI in vitro cytotoxicity (SRB, 48 h), Non-small cell lung panel; settings: Homo sapiens, 48 h exposure
# M14 = experiment: NCI in vitro cytotoxicity (SRB, 48 h), Melanoma panel; settings: Homo sapiens, 48 h exposure
# HS 578T = experiment: NCI in vitro cytotoxicity (SRB, 48 h), Breast panel; settings: Homo sapiens, 48 h exposure
# MDA-MB-468 = experiment: as above; settings: Homo sapiens; MDA-MB-468, Breast; 48 h exposure
# [4] = Ovarian, average of six to eight cell lines, read-out: Log10 GI50 (converted)
# [5] = Ovarian, average of six to eight cell lines
# [6] = exposure period of at least 48 hrs, read-out: GI50, range over ovarian cell lines
# [7] = Melanoma, average of six to eight cell lines, read-out: Log10 GI50 (converted)
# [8] = Melanoma, average of six to eight cell lines
# [9] = exposure period of at least 48 hrs, read-out: GI50, range over melanoma cell lines
# [10] = OVCAR-8, Ovarian, 48 h exposure
# [11] = Leukemia, average of six to eight cell lines, read-out: Log10 GI50 (converted)
# [12] = Leukemia, average of six to eight cell lines
# [13] = exposure period of at least 48 hrs, read-out: GI50, range over leukemia cell lines
# [14] = Homo sapiens, sixty cell lines, nine panels, read-out: GI50 against sixty cell lines in nine cell panels
# [15] = human tumour cell lines, read-out: Log10 GI50 mean graph midpoint (MG_MID) (converted)
# [16] = Renal, average of six to eight cell lines, read-out: Log10 GI50 (converted)
# [17] = Renal, average of six to eight cell lines
# [18] = exposure period of at least 48 hrs, read-out: GI50, range over renal cell lines
# [19] = HOP-92, Non-small cell lung, 48 h exposure
# [20] = Prostate cell, exposure period of at least 48 hrs, read-out: GI50, range over prostate cell lines
# [21] = Prostate, average of the panel's cell lines, read-out: Log10 GI50 (converted)
# [22] = Prostate, average of the panel's cell lines
smiles,measurement,setting,value
"COc1cc(C(=O)/C=C/c2c(C(F)(F)F)nc3sccn23)cc(OC)c1OC [Compound 7f, (E)-3-(6-(trifluoromethyl)imidazo[2,1-b]thiazol-5-yl)-1-(3,4,5-trimethoxyphenyl)prop-2-en-1-one]",GI50,HT29,1830 nM
same,GI50,KM12,1470 nM
same,GI50,CCRF-CEM,1240 nM
same,GI50,SK-MEL-28,1690 nM
same,GI50,TK-10,2300 nM
same,GI50,PC-3,2660 nM
same,GI50,LOX IMVI,1360 nM
same,GI50,SK-OV-3,2870 nM
same,GI50,UO-31,1870 nM
same,GI50,[1]; [4],2690 nM
same,CC50,[1]; [5],57500 nM
same,GI50,[1]; [6],1860 to 3080 nM
same,GI50,Melanoma cell lines; [7],1700 nM
same,CC50,Melanoma cell lines; [8],9330 nM
same,GI50,Melanoma cell lines; [9],1360 to 2260 nM
same,GI50,NCI-H522,2030 nM
same,GI50,OVCAR-8; [10],3080 nM
same,GI50,SK-MEL-5,1590 nM
same,GI50,Leukemia cell lines; [11],1290 nM
same,CC50,Leukemia cell lines; [12],≥ 100000 nM
same,GI50,Leukemia cell lines; [13],540 to 1920 nM
same,GI50,[2]; [14],< 9000 nM
same,Log10 TGI mean graph midpoint (MG_MID),[2]; human tumour cell lines,−5.28
same,"in vitro cytotoxicity, in words",[2]; human tumour cell lines,significant cytotoxicity
same,GI50,[2]; [15],1910 nM
same,CC50,[2]; human tumour cell lines,19100 nM
same,GI50,UACC-25,1900 nM
same,GI50,U251,1380 nM
same,GI50,Renal cancer cell lines; [16],1860 nM
same,CC50,Renal cancer cell lines; [17],10500 nM
same,GI50,Renal cancer cell lines; [18],1560 to 2300 nM
same,GI50,HOP-92; [19],7000 nM
same,GI50,SR,540 nM
same,GI50,SR; 48 h exposure,540 nM
same,GI50,HL-60(TB),1830 nM
same,GI50,786-0,1760 nM
same,GI50,OVCAR-3,1860 nM
same,GI50,OVCAR-4,3050 nM
same,GI50,DU-145,1410 nM
same,GI50,[3]; [20],1410 to 2660 nM
same,GI50,[3]; [21],1950 nM
same,LC50,[3]; [22],20000 nM
same,GI50,HOP-62,1930 nM
same,GI50,MALME-3M,1590 nM
same,GI50,HCT-15,1800 nM
same,GI50,EKVX,2720 nM
"COc1ccc(-c2nc3sccn3c2/C=C/C(=O)c2cc(OC)c(OC)c(OC)c2)cc1 [Compound 7a, (E)-3-(6-(4-methoxyphenyl)imidazo[2,1-b]thiazol-5-yl)-1-(3,4,5-trimethoxyphenyl) prop-2-en-1-one]",GI50,HT29,3120 nM
same,GI50,KM12,2650 nM
same,GI50,CCRF-CEM,3080 nM
same,GI50,SK-MEL-28,4110 nM
same,GI50,TK-10,5040 nM
same,GI50,PC-3,3100 nM
same,GI50,LOX IMVI,2420 nM
same,GI50,SK-OV-3,3280 nM
same,GI50,UO-31,1120 nM
same,GI50,[1]; [4],1860 nM
same,CC50,[1]; [5],70800 nM
same,GI50,[1]; [6],210 to 4050 nM
same,GI50,Melanoma cell lines; [7],2630 nM
same,CC50,Melanoma cell lines; [8],70800 nM
same,GI50,Melanoma cell lines; [9],1300 to 5420 nM
same,GI50,NCI-H522,1970 nM
same,GI50,OVCAR-8; [10],2010 nM
same,GI50,"OVCAR-8; OVCAR-8, ovarian",2010 nM
same,GI50,SK-MEL-5,1300 nM
same,GI50,M14,2330 nM
same,GI50,Leukemia cell lines; [11],2240 nM
same,CC50,Leukemia cell lines; [12],≥ 100000 nM
same,GI50,Leukemia cell lines; [13],1660 to 3080 nM
same,GI50,[2]; [14],< 9000 nM
same,Log10 TGI mean graph midpoint (MG_MID),[2]; human tumour cell lines,−4.76
same,"in vitro cytotoxicity, in words",[2]; human tumour cell lines,significant cytotoxicity
same,GI50,[2]; [15],2340 nM
same,CC50,[2]; human tumour cell lines,87100 nM
same,GI50,U251,3050 nM
same,GI50,Renal cancer cell lines; [16],2510 nM
same,CC50,Renal cancer cell lines; [17],≥ 100000 nM
same,GI50,Renal cancer cell lines; [18],1120 to 5040 nM
same,GI50,HS 578T,1900 nM
same,GI50,HOP-92; [19],240 nM
same,GI50,"HOP-92; HOP-92, non-small cell lung",240 nM
same,IC50,"HOP-92; HOP-92, Table 4, read-out: Comparative efficacy",240 nM
same,GI50,SR; 48 h exposure,2330 nM
same,GI50,HL-60(TB),1660 nM
same,GI50,786-0,2580 nM
same,GI50,OVCAR-3,2230 nM
same,GI50,MDA-MB-468,2960 nM
same,GI50,OVCAR-4,4050 nM
same,GI50,DU-145,2620 nM
same,GI50,[3]; [20],2620 to 3100 nM
same,GI50,[3]; [21],2880 nM
same,LC50,[3]; [22],≥ 100000 nM
same,GI50,HOP-62,2210 nM
same,GI50,MALME-3M,5420 nM
same,GI50,HCT-15,3450 nM
same,GI50,EKVX,3120 nM
